Measured values: patent US11415579B2, “Assay for measuring a rate of reaction between a target and a ligand candidate” (Imperial College Innovations Ltd., priority 2016, dated 2022)

Columns and labels:
Cdk2(T182C) (C177A) = molecular target: T1, Cdk2(T182C) (C177A) (Homo sapiens, UniProt P24941, C177A/T182C); assay: Kinetic thiol consumption assay with Cdk2 mutant T182C; type: binding; parameters: key to Rate enhancement, Cdk2 T182C: rate constant with Cdk2 ÷ rate constant with model thiol (fold); settings: additional mutation C177A; for Rate constant with Cdk2 T182C: Protein: Cdk2, cysteine position T182C, in h^-1
T1 construct: poly-histidine; made in house; host or cells: E. coli
Procedure: (§1) To wells containing 150 μL thiol (Cdk2 or model thiol) (5 μM) in degassed phosphate buffer (pH 8) was added immobilized TCEP beads (2% v/v).
(§2) After incubation of the fluorescence plates for 1 hour at room temperature, fluorescence measurements (excitation/emission of 380/470 nm) were taken on a PerkinElmer EnVision multilabel plate reader and processed with EnVision Workstation version 1.12.
(§3) Fluorescence measurements were normalized against a DMSO/thiol only control and plotted against time.
(§4) Rate constants were calculated using GraphPad software Prism version 6 by fitting a first order exponential decay to the data. The rate constant for each acrylamide with Cdk2 was divided by the rate constant for that fragment with the model thiol to provide the rate enhancement for each ligand candidate.
(§5) A further set of set of additional Cdk2 mutants were screened, all containing the C177A mutation and therefore with only one cysteine on the surface: • F80C (without the K278C mutation) • H71C • S276C • N272 • T182C • R122C • S181C
(§6) Mutations were introduced by site-directed mutagenesis and the resulting cDNA was cloned into the pRSETA bacterial expression vector to generate a poly-histidine tagged Cdk2 fusion that was purified from E. coli using standard techniques.

Cdk2(S276C) (C177A) = molecular target: T2, Cdk2(S276C) (C177A) (Homo sapiens, UniProt P24941, C177A/S276C); assay: Kinetic thiol consumption assay with Cdk2 mutant S276C; type: binding; parameters: key to Rate enhancement, Cdk2 S276C: rate constant with Cdk2 ÷ rate constant with model thiol (fold); settings: additional mutation C177A; for Rate constant with Cdk2 S276C: Protein: Cdk2, cysteine position S276C, in h^-1
T2 construct: poly-histidine; made in house; host or cells: E. coli
Procedure: as §1, §2, §3, §4, §5, §6

[1] = molecular target: T3, human cyclin-dependent kinase 2 (Cdk2) (Homo sapiens, UniProt P24941); assay: Kinetic thiol consumption assay with wild type Cdk2 (C177); type: binding; parameters: key to Rate enhancement, Cdk2 WT: k(Cdk2) divided by k(model thiol); Rate constant with Cdk2 (k(Cdk2)): unit not given here; settings: for Rate enhancement, Cdk2 WT: no additional mutations; for Rate constant with Cdk2 WT: Protein: Cdk2, cysteine position WT, in h^-1; for Rate constant with Cdk2 (k(Cdk2)): 500 μM ligand, 5 μM thiol, phosphate buffer pH 8; for k(Cdk2)/k(GSH) rate enhancement: model thiol glutathione
T3 construct: poly-histidine; made in house; host or cells: E. coli
Procedure: (§7) A library of 120 acrylamides was screened against a) human cyclin-dependent kinase 2 (Cdk2, which contains one surface exposed cysteine residue—C177), prepared by cloning cDNA into the pRSETA bacterial expression vector to generate a poly-histidine tagged Cdk2 fusion that was purified from E. coli using standard techniques, and b) a model thiol (specific details are given below). The structures of these 120 acrylamides are set out in Table 1, above.
as §1, §2, §3, §4

Cdk2(C177A, F80C) = molecular target: T4, Cdk2(C177A, F80C) (Homo sapiens, UniProt P24941, C177A/F80C); assay: Kinetic thiol consumption assay with Cdk2 mutant F80C, incl. kobs versus concentration (Kd, k2); type: binding; parameters: key to Rate enhancement, Cdk2 F80C: Cdk2 rate constant divided by model-thiol rate constant; settings: additional mutation C177A; for Rate constant with Cdk2 F80C: Protein: Cdk2, cysteine position F80C, in h^-1
T4 construct: poly-histidine; made in house; host or cells: E. coli
Procedure: Therefore the assay can be used to calculate both k2 and Kd by experimentally determining kobs at a suitable range of ligand candidate concentrations. Typically Kd and k2 would then be determined by fitting a hyperbolic curve to a plot of kobs against ligand candidate concentration (FIG. 9).
as §1, §2, §3, §4, §5, §6
Rate constants were calculated as described in the methodology section of Examples 1 and 2.

Cdk2(H71C) (C177A) = molecular target: T5, Cdk2(H71C) (C177A) (Homo sapiens, UniProt P24941, C177A/H71C); assay: Kinetic thiol consumption assay with Cdk2 mutant H71C; type: binding; parameters: key to Rate enhancement, Cdk2 H71C: rate constant with Cdk2 ÷ rate constant with model thiol (fold); settings: additional mutation C177A; for Rate constant with Cdk2 H71C: Protein: Cdk2, cysteine position H71C, in h^-1
T5 construct: poly-histidine; made in house; host or cells: E. coli
Procedure: as §1, §2, §3, §4, §5, §6

Cdk2(S181C) (C177A) = molecular target: T6, Cdk2(S181C) (C177A) (Homo sapiens, UniProt P24941, C177A/S181C); assay: Kinetic thiol consumption assay with Cdk2 mutant S181C; type: binding; parameters: key to Rate enhancement, Cdk2 S181C: rate constant with Cdk2 ÷ rate constant with model thiol (fold); settings: additional mutation C177A; for Rate constant with Cdk2 S181C: Protein: Cdk2, cysteine position S181C, in h^-1
T6 construct: poly-histidine; made in house; host or cells: E. coli
Procedure: as §1, §2, §3, §4, §5, §6

Cdk2(N272C) (C177A) = molecular target: T7, Cdk2(N272C) (C177A) (Homo sapiens, UniProt P24941, C177A/N272C); assay: Kinetic thiol consumption assay with Cdk2 mutant N272C; type: binding; parameters: key to Rate enhancement, Cdk2 N272: rate constant with Cdk2 ÷ rate constant with model thiol (fold); settings: for Rate enhancement, Cdk2 N272: Cdk2 N272, additional mutation C177A; for Rate constant with Cdk2 N272C: Protein: Cdk2, cysteine position N272C, additional mutation C177A, in h^-1
T7 construct: poly-histidine; made in house; host or cells: E. coli
Procedure: as §1, §2, §3, §4, §5, §6

[2] = Kinetic thiol consumption assay with model thiol glutathione; type: physicochemical; parameters: Rate constant with glutathione (k(GSH)): unit not given here; settings: for Rate constant with Glutathione: Protein: Glutathione, cysteine position NA, in h-1; for Rate constant with glutathione (k(GSH)): 500 μM ligand, 5 μM thiol, phosphate buffer pH 8
Procedure: as §7, §1, §2, §3, §4
The model thiol in Example 1 is glutathione (GSH). Hits were defined as fragments where kCdk2/kGSH>5.8 (empirically determined as 3 standard deviations over the mean).

Cdk2(R122C) (C177A) = molecular target: T8, Cdk2(R122C) (C177A) (Homo sapiens, UniProt P24941, C177A/R122C); assay: Kinetic thiol consumption assay with Cdk2 mutant R122C; type: binding; parameters: key to Rate enhancement, Cdk2 R122C: rate constant with Cdk2 ÷ rate constant with model thiol (fold); settings: additional mutation C177A; for Rate constant with Cdk2 R122C: Protein: Cdk2, cysteine position R122C, in h-1
T8 construct: poly-histidine; made in house; host or cells: E. coli
Procedure: as §1, §2, §3, §4, §5, §6

Row | Compound | Rate enhancement, Cdk2 T182C (Cdk2(T182C) (C177A)) | Rate constant with Cdk2 T182C (Cdk2(T182C) (C177A)) | Rate enhancement, Cdk2 S276C (Cdk2(S276C) (C177A)) | Rate constant with Cdk2 S276C (Cdk2(S276C) (C177A)) | Rate enhancement, Cdk2 WT [1] | Rate constant with Cdk2 WT [1] | Rate enhancement, Cdk2 F80C (Cdk2(C177A, F80C)) | Rate constant with Cdk2 F80C (Cdk2(C177A, F80C)) | Rate enhancement, Cdk2 H71C (Cdk2(H71C) (C177A)) | Rate constant with Cdk2 H71C (Cdk2(H71C) (C177A)) | Rate enhancement, Cdk2 S181C (Cdk2(S181C) (C177A)) | Rate constant with Cdk2 S181C (Cdk2(S181C) (C177A)) | Rate enhancement, Cdk2 N272 (Cdk2(N272C) (C177A)) | Rate constant with Cdk2 N272C (Cdk2(N272C) (C177A)) | Rate constant with Glutathione [2] | Rate enhancement, Cdk2 R122C (Cdk2(R122C) (C177A)) | Rate constant with Cdk2 R122C (Cdk2(R122C) (C177A)) | Rate constant with Cdk2 (k(Cdk2)) [1] | k(Cdk2)/k(GSH) rate enhancement [1] | Rate constant with glutathione (k(GSH)) [2]
1 | C=CC(=O)N1CCC2(CC1)NC(=O)C1(CCCCC1)N2 [CA-129/235] | 0.8826 | 0.009647 | 1.682 | 0.01838 | 0.2508 | 0.002741 | 0.1819 | 0.001988 | 0.03271 | 0.0003575 | 0.2227 | 0.002434 | 0.3936 | 0.004302 | 0.01093 | 0.925 | 0.01011 |  |  | 
2 | C=CC(=O)N1CCCC1CC1CC2CCC1C2 (centres unmarked) [CA-087] | 6.465 | 0.05469 | 0.7322 | 0.006194 | 1.059 | 0.00896 | 0.4785 | 0.004048 | 35.53 | 0.3006 | 0.6457 | 0.005463 | 0.3045 | 0.002576 | 0.00846 | 0.319 | 0.002699 | 0.00508 | 0.9957 | 0.0051
3 | N#Cc1ccncn1 [EN007] | 0.9515 | 0.001386 | 0 |  | 0 |  | 0.9144 | 0.001332 | 0 |  |  |  | 0 | 0.001652 |  |  |  |  |  | 
4 | CN(C#N)Cc1ccccc1 [EN009] | 1.07 | 0.006898 | 0.921 | 0.005935 | 0 |  | 3.246 | 0.02092 | 5.4624E−12 | 3.52E−14 | 0.6302 | 0.004061 | 0 |  |  | 0.132 | 0.0008504 |  |  | 
5 | C#CCN1CCCN(C(=O)C=C)CC1 [CA-196] | 2.74 | 0.009935 | 0.4186 | 0.001518 | 1.03 | 0.003735 | 0.4719 | 0.001711 | 0 |  | 0.7592 | 0.002753 | 0.8296 | 0.003008 | 0.003626 | 0.7394 | 0.002681 | 0.00372 | 1.021 | 0.00365
6 | C=CC(=O)N(CC(=O)N1CCCC1)CC1CCCO1 (centres unmarked) [CA-080] |  |  |  |  |  |  |  |  |  |  |  |  |  |  |  |  |  | 0.00195 | 0.2764 | 0.00706
7 | C=CC(=O)N1CCn2c(C(=O)NC3CC3)ccc2C1C (centres unmarked) [CA-040/230] | 1.268 | 0.05436 | 0.7654 | 0.03282 | 0.6915 | 0.02965 | 0.3102 | 0.0133 | 0.7334 | 0.03145 | 0.247 | 0.01059 | 3.076 | 0.1319 | 0.04288 | 0.285 | 0.01222 |  |  | 
8 | O=C(CCl)N1CCSc2ccccc21 [EN004] | 0 |  | 4.615 | 1.689 | 4.361 | 1.596 | 0.01666 | 0.006096 | 0.3522 | 0.1289 | 0.08978 | 0.03286 | 0.243 | 0.08895 | 0.366 | 0.1248 | 0.04566 |  |  | 
9 | FC(F)(F)c1cc(Cl)ncc1Br [EN008] | 0.1321 | 0.005911 | 1.5439E−13 | 6.908E−15 | 0 |  | 4.64 | 0.2076 | 0 |  | 0.02434 | 0.001089 | 0.2037 | 0.009116 |  | 0 |  |  |  | 
10 | Cn1cc(S(=O)(=O)N2CCOCC2)cc1C(=O)NC(=O)CCl [EN002] | 2.567 | 0.01298 | 0 |  | 1.276 | 0.006451 | 49.31 | 0.2493 | 7.5652E−12 | 3.825E−14 | 0.2957 | 0.001495 | 1.133 | 0.00573 |  | 0.1371 | 0.0006932 |  |  | 
